A short description of test [1]: Inhibition of gamma secretase-mediated notch processing in C57BL/6 mouse fetal thymic organ cultures assessed as reduction of B and T-cell populations after […] by FACS analysis.
For the next test, the species on record is Mus musculus. Put plainly: Antialzheimer activity in heterozygous PDAPP transgenic mouse overexpressing APP V717F mutant assessed as reduction of total amyloid beta level in brain. It counts as functional. The note with it: read-out: MED.
The subject of test [2] is Cavia porcellus. The test can be described thus: Antialzheimer activity in guinea pig assessed as reduction of total amyloid beta level in brain at 10 mg/kg, sc after 3 hrs by DELFIA-based ELISA. Further details: scale not given: the % may be the effect or the level left. It counts as functional. For orientation: An ELISA detects its analyte on a solid surface through an enzyme-linked reagent.

Test [3] concerns Cavia porcellus. Put plainly: Antialzheimer activity in guinea pig assessed as reduction of total amyloid beta level in brain at 1 to 32 mg/kg, sc after 1 hr by DELFIA-based ELISA. It counts as functional, organism-based.
Test [4] concerns Cavia porcellus. The test can be described thus: Antialzheimer activity in guinea pig assessed as reduction of total amyloid beta level in cerebral spinal fluid at 1 to 32 mg/kg, sc after 1 hr by DELFIA-based ELISA. It counts as functional, organism-based.
The test system of test [5] is Cavia porcellus. The test can be described thus: Antialzheimer activity in sc dosed guinea pig assessed as reduction of total amyloid beta level in brain after 3 hrs by DELFIA-based ELISA. It is filed as functional.
Test [6] deals with Cavia porcellus. The test can be described thus: Antialzheimer activity in guinea pig assessed as reduction of total amyloid beta level in brain at 5 mg/kg, sc administered 3 doses over 24 hrs measured after 3 hrs last post dose by DELFIA-based ELISA. Set-up: scale not given: the % may be the effect or the level left. The settings on record: route subcutaneous. It is filed as functional.

Test [7] has as its system Cavia porcellus. Put plainly: Antialzheimer activity in guinea pig assessed as reduction of total amyloid beta level in plasma at 3.2 mg/kg, sc after 3 hrs by DELFIA-based ELISA. It counts as functional, organism-based. Further details: dose 3.2 mg/kg.
The subject of test [8] is Cavia porcellus. Put plainly: Antialzheimer activity in guinea pig assessed as reduction of total amyloid beta level in plasma at 1 to 32 mg/kg, sc after 1 hr by DELFIA-based ELISA. It counts as functional, organism-based.
A short description of test [9]: Inhibition of gamma-secretase in guinea pig brain. Set-up: species or system Cavia porcellus.
Test [10] has as its system Cavia porcellus. The test can be described thus: Antialzheimer activity in guinea pig assessed as reduction of total amyloid beta level in cerebral spinal fluid at 1 to 32 mg/kg, sc after 3 to 7 hrs by DELFIA-based ELISA. It is filed as functional, organism-based.
Test [11] relates to Cavia porcellus. Put plainly: Antialzheimer activity in guinea pig assessed as reduction of total amyloid beta level in brain at 1 to 32 mg/kg, sc after 3 to 7 hrs by DELFIA-based ELISA. It is filed as functional, organism-based.
The test system of test [12] is Cavia porcellus. Put plainly: Antialzheimer activity in guinea pig assessed as reduction of total amyloid beta level in plasma at 1 to 32 mg/kg, sc after 3 to 7 hrs by DELFIA-based ELISA. It is filed as functional, organism-based.
For test [13], the system named is Cavia porcellus. The test can be described thus: Antialzheimer activity in guinea pig assessed as reduction of total amyloid beta level in plasma at 1 to 32 mg/kg, sc after 3 hrs by DELFIA-based ELISA. It is filed as functional. Set-up: scale not given: the % may be the effect or the level left. The note with it: dose mg/kg 1-32; route subcutaneous.

From ChEMBL document CHEMBL1770080, “Diamide amino-imidazoles: a novel series of γ-secretase inhibitors for the treatment of Alzheimer's disease” (Bioorg Med Chem Lett, 2011) come the findings set out here.

Activity calls are given as the source filed them. The rule behind the calls is not given here.

What is called EC50 is the concentration at which the effect is half-maximal. Broadly, the ED50 is the dose that gives a 50% effect, or the effect in half of the subjects. One may read the IC50 as the midpoint of a concentration-inhibition curve.

Take `CCC[C@H](NC(=O)Cc1cc(F)cc(F)c1)C(=O)Nc1cn(C(C)(C)CNC(C)C)cn1`: the EC50 in test [1] was greater than 10000 nM. Turning to `CCC[C@H](NC(=O)Cc1cc(F)cc(F)c1)C(=O)Nc1cn(C(C)(C)CNCC2CCOCC2)cn1`, in [1], the EC50 was found to be 4000 nM. In the case of `C[C@H](NC(=O)Cc1cc(F)cc(F)c1)C(=O)N[C@H](C(=O)OC(C)(C)C)c1ccccc1`, the minimal effective dose in the test filed under Mus musculus is 30 mg/kg. As to `CCC[C@H](NC(=O)Cc1cc(F)cc(F)c1)C(=O)Nc1cn(C(C)(C)CN(C)C)cn1`, the EC50 in [1] is 700 nM. Turning to `CCC[C@H](NC(=O)Cc1cc(F)cc(F)c1)C(=O)Nc1cn(C(CC)CC)cn1`, the Activity with Cavia porcellus [2] (route subcutaneous) was less than 10%. Same read-out and setting: for `CCC[C@H](NC(=O)Cc1cc(F)cc(F)c1)C(=O)Nc1cn(C(C)(C)CN2CCCC2)cn1` the value was 43%. As to `CCC[C@H](NC(=O)Cc1cc(F)cc(F)c1)C(=O)Nc1cn(C(C)(C)CN2CCOCC2)cn1`, the EC50 in test [1] is 100 nM. For `CCC[C@H](NC(=O)Cc1cc(F)cc(F)c1)C(=O)Nc1cn(C(C)(C)CC(=O)OC)cn1`, the Activity in the test with Cavia porcellus [2] (route subcutaneous) came out at 32%.

`CCC[C@H](NC(=O)Cc1cc(F)cc(F)c1)C(=O)Nc1cn(C(C)(C)CNCc2ccccc2)cn1`: the concentration for a half-maximal effect (EC50) in [1] was determined as 4300 nM. `CC(C)C[C@H](NC(=O)Cc1cc(F)cc(F)c1)C(=O)Nc1cn(C(C)(C)CN2CCCC2)cn1`: the outcome in the test with Cavia porcellus [2] was inactive. As for `CCC[C@H](NC(=O)Cc1cc(F)cc(F)c1)C(=O)Nc1cn(C(C)(C)CNC2CCC(O)CC2)cn1` (some centres undefined), the EC50 in test [1] was greater than 10000 nM. Consider `CCC[C@H](NC(=O)Cc1cc(F)cc(F)c1)C(=O)Nc1cn(C(C)(C)CNCC(C)(C)C)cn1`, for which the outcome with Cavia porcellus [3], in the test on Cavia porcellus [7], in the test with Cavia porcellus [8], in the test with Cavia porcellus [10], in the test on Cavia porcellus [11] and with Cavia porcellus [12] was Active. The outcome in the test on Cavia porcellus [4] was inactive. In addition, the ED50 with Cavia porcellus [5] was found to be 7.3 mg/kg. The EC50 in test [1] amounted to 1200 nM. Moreover, the Activity in the test with Cavia porcellus [6] was found to be 50%; with Cavia porcellus [13], 60%. Moreover, the midpoint of inhibition in test [9], the IC50, lay at 24 nM. `C[C@H](NC(=O)Cc1cc(F)cc(F)c1)C(=O)Nc1cn(C(C)(C)CN2CCCC2)cn1`: the result in the test on Cavia porcellus [2] was inactive.
